The text below walks through data of patent US8017602B2, “N-(2-(2-(5-hydroxy-3-oxo-3,4-dihydro-2H-benzo[b][1,4]oxazin-8-yl)ethylamino)ethyl)-3-(phenethoxy)propanamide derivatives, processes for their preparation, pharmaceutical compositions containing them and their use in therapy” (AstraZeneca AB, priority 2008, dated 2011).

For experiment [1], the target named is T1, Adrenergic β2 (Homo sapiens, UniProt P07550).
T1 construct: Adherent H292 cells were removed from tissue culture flasks; endogenous in cells; host or cells: H292 cells
As to the kind of experiment: Adrenergic β2 mediated cAMP production in H292 cells (AlphaScreen cAMP detection). As to conditions: for β2 Int Act: Intrinsic Activity, fraction relative to the maximum activity determined for formoterol; for EC50: cAMP production, 60 min at room temperature, 300 μM rolipram, read-out: β2 pEC50 (converted). The class given is cell-based. As for the experimental part:
H292 cells were grown in 225 cm2 flasks incubator at 37° C., 5% CO2 in RPMI medium containing, 10% (v/v) FBS (foetal bovine serum) and 2 mM L-glutamine.
Adherent H292 cells were removed from tissue culture flasks by treatment with Accutase™ cell detachment solution for 15 min. Flasks were incubated for 15 min in a humidified incubator at 37° C., 5% CO2. Detached cells were re-suspended in RPMI media (containing 10% (v/v) FBS and 2 mM L-glutamine) at […]. 10000 cells in 100 μl were added to each well of a tissue-culture-treated 96-well plate and the cells incubated overnight in a humidified incubator at 37° C., 5% CO2. The culture media was removed and cells were washed twice with 100 μl assay buffer and replaced with 50 μL assay buffer (HBSS solution containing 10 mM HEPES pH7.4 and 5 mM glucose). Cells were rested at room temperature for 20 min after which time 25 μl of rolipram (1.2 mM made up in assay buffer containing 2.4% (v/v) dimethylsulphoxide) was added. Cells were incubated with rolipram for 10 min after which time test compounds were added and the cells were incubated for 60 min at room temperature. The final rolipram concentration in the assay was 300 μM and final vehicle concentration was 1.6% (v/v) dimethylsulphoxide. The reaction was stopped by removing supernatants, washing once with 100 μL assay buffer and replacing with 50 μL lysis buffer. The cell monolayer was frozen at −80° C. for 30 min (or overnight).
AlphaScreen™ cAMP Detection
The concentration of cAMP (cyclic adenosine monophosphate) in the cell lysate was determined using AlphaScreen™ methodology. The frozen cell plate was thawed for 20 min on a plate shaker then 10 μl of the cell lysate was transferred to a 96-well white plate. 40 μL of mixed AlphaScreen™ detection beads pre-incubated with biotinylated cAMP, was added to each well and the plate incubated at room temperature for 10 h in the dark. The AlphaScreen™ signal was measured using an EnVision spectrophotometer (Perkin-Elmer Inc.) with the recommended manufacturer's settings. cAMP concentrations were determined by reference to a calibration curve determined in the same experiment using standard cAMP concentrations. Concentration response curves for agonists were constructed and data was fitted to a four parameter logistic equation to determine both the pEC50 and Intrinsic Activity. Intrinsic Activity was expressed as a fraction relative to the maximum activity determined for formoterol in each experiment.

For experiment [2], the target named is T2, recombinant human α1D receptor (Homo sapiens, UniProt P25100).
T2 construct: expressed in transfected cells; host or cells: HEK293
T2 sequence (P25100 1-572): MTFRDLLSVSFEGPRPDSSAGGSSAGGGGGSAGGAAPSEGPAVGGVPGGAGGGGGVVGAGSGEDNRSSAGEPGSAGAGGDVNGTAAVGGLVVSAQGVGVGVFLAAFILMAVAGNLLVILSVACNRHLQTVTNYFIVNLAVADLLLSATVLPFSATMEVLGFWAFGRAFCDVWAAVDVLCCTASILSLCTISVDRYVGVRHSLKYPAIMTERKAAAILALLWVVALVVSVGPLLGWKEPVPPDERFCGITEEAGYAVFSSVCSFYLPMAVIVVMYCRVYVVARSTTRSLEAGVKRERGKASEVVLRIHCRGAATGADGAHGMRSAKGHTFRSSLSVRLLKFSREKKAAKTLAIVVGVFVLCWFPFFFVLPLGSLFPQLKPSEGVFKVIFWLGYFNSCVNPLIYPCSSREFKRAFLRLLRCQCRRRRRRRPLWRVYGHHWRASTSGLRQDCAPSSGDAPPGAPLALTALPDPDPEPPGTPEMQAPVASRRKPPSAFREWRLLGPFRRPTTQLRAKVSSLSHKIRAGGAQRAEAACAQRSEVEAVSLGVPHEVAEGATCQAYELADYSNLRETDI
As to the kind of experiment: Adrenergic α1D selectivity binding assay ([3H]-prazosin). As to conditions: inhibition of [3H]-prazosin binding, HEK293 membranes, read-out: α1 bind pIC50 (converted). The procedure:
Membranes were prepared from human embryonic kidney 293 (HEK293) cells expressing recombinant human α1D receptor. These were diluted in Assay Buffer (50 mM HEPES, 1 mM EDTA, pH 7.4) to provide a final concentration of membranes that gave a clear window between maximum and minimum specific binding.
Assays were performed in U-bottomed 96-well polypropylene plates. 10 μl [^3H]-prazosin (0.3 nM final concentration) and 10 μl of test compound (10× final concentration) were added to each test well. For each assay plate 8 replicates were obtained for [^3H]-prazosin binding in the presence of 10 μl vehicle (10% (v/v) DMSO in Assay Buffer; defining maximum binding) or 10 μL BMY7378 (10 μM final concentration; defining non-specific binding (NSB)). Membranes were then added to achieve a final volume of 100 μL. The plates were incubated for 2 h at room temperature and then filtered onto PEI coated GF/B filter plates, pre-soaked for 1 h in Assay Buffer, using a 96-well plate Tomtec cell harvester. Five washes with 250 μl wash buffer (50 mM HEPES, 1 mM EDTA, pH 7.4) were performed at 4° C. to remove unbound radioactivity. The plates were dried then sealed from underneath using Packard plate sealers and MicroScint-O (50 μl) was added to each well. The plates were sealed (TopSeal A) and filter-bound radioactivity was measured with a scintillation counter (TopCount, Packard BioScience) using a 3-minute counting protocol.
Total specific binding (B0) was determined by subtracting the mean NSB from the mean maximum binding. NSB values were also subtracted from values from all other wells. […] Data was fitted to a four parameter logistic equation to determine the compound potency, which was expressed as pIC50 (negative log molar concentration inducing 50% inhibition of [^3H]-prazosin binding).

Counter-ions that a name gives are not always drawn.

T1 sequence (P07550 whole entry): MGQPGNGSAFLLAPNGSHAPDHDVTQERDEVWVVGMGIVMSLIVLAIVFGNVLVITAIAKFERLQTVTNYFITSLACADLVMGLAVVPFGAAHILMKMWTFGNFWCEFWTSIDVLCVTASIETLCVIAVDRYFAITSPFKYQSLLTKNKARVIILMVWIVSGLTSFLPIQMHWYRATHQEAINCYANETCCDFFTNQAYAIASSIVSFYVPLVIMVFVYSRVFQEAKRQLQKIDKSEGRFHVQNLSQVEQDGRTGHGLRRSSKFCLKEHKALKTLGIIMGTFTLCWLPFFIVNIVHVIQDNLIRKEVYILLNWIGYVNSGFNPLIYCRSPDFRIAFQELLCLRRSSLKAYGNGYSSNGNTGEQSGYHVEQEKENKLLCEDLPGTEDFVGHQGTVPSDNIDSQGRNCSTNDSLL

Turning to `Cn1nccc1-c1cccc(CCOCCC(=O)N(CCNCCc2ccc(O)c3c2OCC(=O)N3)C2CCCCC2)c1` [Example 03, N-Cyclohexyl-N-(2-(2-(5-hydroxy-3-oxo-3,4-dihydro-2H-benzo[b][1,4]oxazin-8-yl)ethylamino)ethyl)-3-(3-(1-methyl-1H-pyrazol-5-yl)phenethoxy)propanamide Trifluoroacetic Acid Salt], in experiment [1], the “β2 Int Act” value stood at 0.81 and the EC50 is 10 nM. In experiment [2], the IC50 was 2000 nM.
In the same order, the values of `CCn1cc(-c2cccc(CCOCCC(=O)N(CCNCCc3ccc(O)c4c3OCC(=O)N4)C3CCCCC3)c2)nn1` [Example 04, N-Cyclohexyl-3-(3-(1-ethyl-1H-1,2,3-triazol-4-yl)phenethoxy)-N-(2-(2-(5-hydroxy-3-oxo-3,4-dihydro-2H-benzo[b][1,4]oxazin-8-yl)ethylamino)ethyl)propanamide Trifluoroacetic Acid Salt] are 0.96, 12.6 nM and 2000 nM.
As to `Cn1cc(-c2cccc(CCOCCC(=O)N(CCNCCc3ccc(O)c4c3OCC(=O)N4)C3CCCCC3)c2)nn1` [Example 05, N-Cyclohexyl-N-(2-(2-(5-hydroxy-3-oxo-3,4-dihydro-2H-benzo[b][1,4]oxazin-8-yl)ethylamino)ethyl)-3-(3-(1-methyl-1H-1,2,3-triazol-4-yl)phenethoxy)propanamide Trifluoroacetic Acid Salt], in experiment [1], the “β2 Int Act” value is on record as 0.87 and the EC50 is 7.94 nM. The IC50 in experiment [2] is 2000 nM.
For `Cn1nnc(-c2cccc(CCOCCC(=O)N(CCNCCc3ccc(O)c4c3OCC(=O)N4)C3CCCCC3)c2)n1` [Example 07, N-Cyclohexyl-N-(2-(2-(5-hydroxy-3-oxo-3,4-dihydro-2H-benzo[b][1,4]oxazin-8-yl)ethylamino)ethyl)-3-(3-(2-methyl-2H-tetrazol-5-yl)phenethoxy)propanamide Trifluoroacetic Acid Salt] the same measures were 0.92, 15.8 nM and 1000 nM.
Take `Cn1nnnc1-c1cccc(CCOCCC(=O)N(CCNCCc2ccc(O)c3c2OCC(=O)N3)C2CCCCC2)c1` [Example 08, N-Cyclohexyl-N-(2-(2-(5-hydroxy-3-oxo-3,4-dihydro-2H-benzo[b][1,4]oxazin-8-yl)ethylamino)ethyl)-3-(3-(1-methyl-1H-tetrazol-5-yl)phenethoxy)propanamide Trifluoroacetic Acid Salt]: in experiment [1], the “β2 Int Act” value amounted to 0.92 and the EC50 was 15.8 nM. For the same molecule, the IC50 in experiment [2] was 3980 nM.
For `CC(C)[C@@H](C)N(CCNCCc1ccc(O)c2c1OCC(=O)N2)C(=O)CCOCCc1cccc(-c2cnn(C)c2)c1` [Example 09, (R)—N-(2-(2-(5-Hydroxy-3-oxo-3,4-dihydro-2H-benzo[b][1,4]oxazin-8-yl)ethylamino)ethyl)-3-(3-(1-methyl-1H-pyrazol-4-yl)phenethoxy)-N-(3-methylbutan-2-yl)propanamide Trifluoroacetic Acid Salt] the same measures were 0.92, 7.94 nM and 1000 nM.
For `O=C1COc2c(CCNCCN(C(=O)CCOCCc3cccc(-c4cnco4)c3)C3CCCCC3)ccc(O)c2N1` [Example 10, N-Cyclohexyl-N-(2-(2-(5-hydroxy-3-oxo-3,4-dihydro-2H-benzo[b][1,4]oxazin-8-yl)ethylamino)ethyl)-3-(3-(oxazol-5-yl)phenethoxy)propanamide Trifluoroacetic Acid Salt] the same measures were 0.88, 10 nM and 316 nM.
In the same order, the values of `CC(C)n1cc(-c2cccc(CCOCCC(=O)N(CCNCCc3ccc(O)c4c3OCC(=O)N4)C3CCCCC3)c2)nn1` [Example 12, N-Cyclohexyl-N-(2-(2-(5-hydroxy-3-oxo-3,4-dihydro-2H-benzo[b][1,4]oxazin-8-yl)ethylamino)ethyl)-3-(3-(1-isopropyl-1H-1,2,3-triazol-4-yl)phenethoxy)propanamide Trifluoroacetic Acid Salt] are 0.91, 20 nM and 1580 nM.
Take `Cn1cc(-c2cc(CCOCCC(=O)N(CCNCCc3ccc(O)c4c3OCC(=O)N4)C3CCCCC3)ccc2F)cn1` [Example 13, N-Cyclohexyl-3-(4-fluoro-3-(1-methyl-1H-pyrazol-4-yl)phenethoxy)-N-(2-(2-(5-hydroxy-3-oxo-3,4-dihydro-2H-benzo[b][1,4]oxazin-8-yl)ethylamino)ethyl)propanamide Trifluoroacetic Acid Salt]: in experiment [1], the “β2 Int Act” value turned out to be 0.85 and the EC50 was 10 nM. Also, the IC50 in experiment [2] was 631 nM.
For `O=C1COc2c(CCNCCN(C(=O)CCOCCc3cccc(-c4c[nH]nn4)c3)C3CCCCC3)ccc(O)c2N1` [Example 14, 3-(3-(1H-1,2,3-Triazol-4-yl)phenethoxy)-N-cyclohexyl-N-(2-(2-(5-hydroxy-3-oxo-3,4-dihydro-2H-benzo[b][1,4]oxazin-8-yl)ethylamino)ethyl)propanamide Trifluoroacetic Acid Salt] the same measures were 0.95, 7.94 nM and 1000 nM.
In the same order, the values of `O=C1COc2c(CCNCCN(C(=O)CCOCCc3cccc(-c4nn[nH]n4)c3)C3CCCCC3)ccc(O)c2N1` [Example 15, 3-(3-(2H-Tetrazol-5-yl)phenethoxy)-N-cyclohexyl-N-(2-(2-(5-hydroxy-3-oxo-3,4-dihydro-2H-benzo[b][1,4]oxazin-8-yl)ethylamino)ethyl)propanamide Trifluoroacetic Acid Salt] are 0.83, 12.6 nM and more than 10000 nM.
For `Cn1cc(-c2cccc(CCOCCC(=O)N(CCNCCc3ccc(O)c4c3OCC(=O)N4)C3CCCCC3)c2F)cn1` [Example 16, N-Cyclohexyl-3-(2-fluoro-3-(1-methyl-1H-pyrazol-4-yl)phenethoxy)-N-(2-(2-(5-hydroxy-3-oxo-3,4-dihydro-2H-benzo[b][1,4]oxazin-8-yl)ethylamino)ethyl)propanamide Trifluoroacetic Acid Salt] the same measures were 1.00, 12.6 nM and 501 nM.
